Assay results taken from patent publication US20100285959A1, “HERBICIDAL MIXTURES” (priority 2006, published 2010).
Read-outs that look alike come from different tables or passages of the source. One block for each compound: values may come before it.

How the values were obtained:
[1] = tested on: mixed hardwoods (MXDSP); assay: Test 13 field trial, postemergence, brush weeds; assay type: in vivo, Nyssa sylvatica, Acer rubrum, Liquidambar styraciflua; details: 56 DAA; g a.i./ha: Cpd 2 250; Fosamine-ammonium 6700
Text: (§1) Plots were established in non-crop land and were 6.1 m long by 3.0 m wide. […] Treatments were applied postemergence to the brush weeds using a backpack sprayer delivering a spray volume of 468 L/ha using a pressure of 241 kPa. […] All treatments also included a surfactant. […] Results are the means of the three replicates.

[2] = tested on: oak species (QUESS); assay: Test 13 field trial, postemergence, brush weeds; assay type: in vivo, Quercus L. spp.; details: 56 DAA; g a.i./ha: Cpd 2 250; Fosamine-ammonium 6700
Text: as §1

[3] = tested on: corn (ZEAMD); design: species or system Zea mays ssp. indentata; details: in vivo
Procedure: (§2) A greenhouse test was conducted to evaluate the effects of Compounds 1 and 2, applied preemergence, on the plant species corn (ZEAMD, Zea mays ssp. indentata) and wheat (TRZAW, Triticum aestivum L.) grown from seed treated with and without naphthalic anhydride. Naphthalic anhydride was applied at a rate of 1% wt/wt basis to corn and wheat seed. Seed treatments were made as follows for evaluations of the chemical materials employed. One-hundred grams of each crop seed were placed in a separate self-closing plastic bag to which 1 gram of the chemical material was added. The bag containing the seed was tightly closed and gently agitated thereby allowing the seed to slowly come in contact with the chemical material to achieve maximal distribution on the seed surface, arriving at a uniform coverage. Treatment rate comparisons between spray application and seed treatment materials were made on the calculated area rate of naphthalic anhydride in grams active ingredient per hectare for a given crop. These rates were calculated based on a typical seeding rate per hectare used for agronomic production of a given crop. For wheat, a typical average seeding rate is 200 wheat seeds per square meter which weigh 6.8 g. For corn, a typical average seeding rate is 7.5 corn seeds per square meter which weigh 2.0 g. […] Corn treatments were replicated three times. Wheat treatments were replicated two times. […]

[4] = tested on: wheat (TRZAW); design: species or system Triticum aestivum; details: in vivo
Procedure: as §2

[5] = tested on: bushy wallflower (ERYRE); assay: Test 9 field trial, emerged weeds before corn planting; assay type: in vivo, Erysimum repandum; details: g a.i./ha: Cpd 2 100, Glyphosate 1540, Paraquat 1150
Procedure: (§3) Corn seeds (hybrid ‘Pioneer 34M91 RR’) were planted in mid spring season, about 3.8 cm deep in a silty clay loam soil having a pH of 6.7. Plots were 9.1 m long by 3.0 m. The field was managed using no-till practices. […] Compound 2 and paraquat treatments, alone and in combination, also included a surfactant. Glyphosate, alone and with Compound 2, included ammonium sulfate in the treatment mixture. […] The effects on the weeds in the treated plots and untreated control plots were recorded 7, 14, 23, 30 and 57 days after application. Most of the weed species could not be evaluated at every timing. Corn response was only evaluated 57 days after application. […] Results are the means of the three replicates.

[6] = tested on: common chickweed (STEME); assay: Test 3 field trial, emerged weeds before corn planting; assay type: in vivo, Stellaria media; details: Cpd 2 100, glyphosate 1540, paraquat 1150 g a.i./ha, alone or combined
Text: (§4) Corn seeds (hybrid ‘Pioneer 33J56’) were planted in early spring season, 3.8 cm deep in a silt loam soil having 2.4% organic matter and a pH of 6. Plots were 6.1 m long by 2.7 m wide with rows spaced 91.4 cm apart. The field was managed using no-till practices. […] Compound 2 and paraquat treatments, alone and in combination, also included a surfactant. Glyphosate, alone and with Compound 2, included ammonium sulfate in the treatment mixture. […] The effects on the weeds in the treated plots and untreated control plots were recorded 30, 42, 46 and 68 days after application. Most of the weed species could not be evaluated at every timing. Corn response was not evaluated because the growth was highly variable depending on the efficacy of the weed control treatments. […] Results are the means of the three replicates.

[7] = tested on: giant foxtail (SETFA); assay: as above; assay type: in vivo, Setaria faberi; details: 68 DAA; Cpd 2 100, glyphosate 1540, paraquat 1150 g a.i./ha, alone or combined
Text: as §4

[8] = tested on: prickly lettuce (LACSE); assay: Test 9 field trial, emerged weeds before corn planting; assay type: in vivo, Lactuca serriola; details: g a.i./ha: Cpd 2 100, Glyphosate 1540, Paraquat 1150
Procedure: as §3

[9] = tested on: henbit deadnettle (LAMAM); assay: as above; assay type: in vivo, Lamium amplexicaule; details: g a.i./ha: Cpd 2 100, Glyphosate 1540, Paraquat 1150
Procedure: as §3

[10] = tested on: common chickweed (STEME); assay: as above; assay type: in vivo, Stellaria media; details: g a.i./ha: Cpd 2 100, Glyphosate 1540, Paraquat 1150
Procedure: as §3

[11] = tested on: Canada horseweed (ERICA); assay: as above; assay type: in vivo, Erigeron canadensis; details: g a.i./ha: Cpd 2 100, Glyphosate 1540, Paraquat 1150
Procedure: as §3

[12] = tested on: common dandelion (TAROF); assay: as above; assay type: in vivo, Taraxacum officinale; details: g a.i./ha: Cpd 2 100, Glyphosate 1540, Paraquat 1150
Procedure: as §3

[13] = tested on: red deadnettle (LAMPU); assay: as above; assay type: in vivo, Lamium purpureum; details: g a.i./ha: Cpd 2 100, Glyphosate 1540, Paraquat 1150
Procedure: as §3

[14] = tested on: giant ragweed (AMBTR); assay: as above; assay type: in vivo, Ambrosia trifida; details: g a.i./ha: Cpd 2 100, Glyphosate 1540, Paraquat 1150
Procedure: as §3

[15] = tested on: smallflower buttercup (RANAB); assay: as above; assay type: in vivo, Ranunculus abortivus; details: g a.i./ha: Cpd 2 100, Glyphosate 1540, Paraquat 1150
Procedure: as §3

[16] = tested on: corn (ZEAMD); assay: as above; assay type: in vivo, Zea mays ssp. indentata; details: 57 DAA; g a.i./ha: Cpd 2 100, Glyphosate 1540, Paraquat 1150
Procedure: as §3

[17] = tested on: common lambsquarters (CHEAL); assay: as above; assay type: in vivo, Chenopodium album; details: 57 DAA; g a.i./ha: Cpd 2 100, Glyphosate 1540, Paraquat 1150
Procedure: as §3

[18] = tested on: common lambsquarters (CHEAL); assay: Test 3 field trial, emerged weeds before corn planting; assay type: in vivo, Chenopodium album; details: 68 DAA; Cpd 2 100, glyphosate 1540, paraquat 1150 g a.i./ha, alone or combined
Text: as §4

[19] = tested on: shepherd's purse (CAPBP); assay: Test 9 field trial, emerged weeds before corn planting; assay type: in vivo, Capsella bursa-pastoris; details: g a.i./ha: Cpd 2 100, Glyphosate 1540, Paraquat 1150
Procedure: as §3

[20] = tested on: Virginia pepperweed (LEPVI); assay: Test 3 field trial, emerged weeds before corn planting; assay type: in vivo, Lepidium virginicum; details: Cpd 2 100, glyphosate 1540, paraquat 1150 g a.i./ha, alone or combined
Text: as §4

[21] = tested on: curly dock (RUMCR); assay: as above; assay type: in vivo, Rumex crispus; details: Cpd 2 100, glyphosate 1540, paraquat 1150 g a.i./ha, alone or combined
Text: as §4

[22] = tested on: red deadnettle (LAMPU); assay: as above; assay type: in vivo, Lamium purpureum; details: Cpd 2 100, glyphosate 1540, paraquat 1150 g a.i./ha, alone or combined
Text: as §4

SMILES: CCOP(=O)(O)C(N)=O [Fosamine-ammonium, fosamine-ammonium, reference compound]
MXDSP Obs [1]: 47 | QUESS Obs [2]: 33

ZEAMD Obs [3]: 0 | TRZAW Obs [4]: 0
SMILES: O=C1OC(=O)c2cccc3cccc1c23 [Naphthalic anhydride]

SMILES: C[n+]1ccc(-c2cc[n+](C)cc2)cc1 [Paraquat]
ERYRE Obs ([5]; 7 DAA): 98% | ERYRE Obs ([5]; 14 DAA): 94% | ERYRE Obs ([5]; 23 DAA): 98% | ERYRE Obs ([5]; 30 DAA): 100% | ERYRE Obs ([5]; 57 DAA): 80% | STEME Obs ([6]; 30 DAA): 96% | STEME Obs ([6]; 42 DAA): 97% | STEME Obs ([6]; 46 DAA): 88% | SETFA Obs [7]: 0% | LACSE Obs ([8]; 7 DAA): 97% | LACSE Obs ([8]; 14 DAA): 95% | LACSE Obs ([8]; 23 DAA): 100% | LACSE Obs ([8]; 30 DAA): 100% | LACSE Obs ([8]; 57 DAA): 100% | LAMAM Obs ([9]; 7 DAA): 93% | LAMAM Obs ([9]; 14 DAA): 84% | LAMAM Obs ([9]; 23 DAA): 85% | LAMAM Obs ([9]; 30 DAA): 73% | LAMAM Obs ([9]; 57 DAA): 81% | STEME Obs ([10]; 7 DAA): 99% | STEME Obs ([10]; 14 DAA): 99% | STEME Obs ([10]; 23 DAA): 100% | STEME Obs ([10]; 30 DAA): 100% | STEME Obs ([10]; 57 DAA): 98% | ERICA Obs ([11]; 7 DAA): 95% | ERICA Obs ([11]; 14 DAA): 96% | ERICA Obs ([11]; 23 DAA): 99% | ERICA Obs ([11]; 30 DAA): 100% | ERICA Obs ([11]; 57 DAA): 81% | TAROF Obs ([12]; 7 DAA): 79% | TAROF Obs ([12]; 14 DAA): 69% | TAROF Obs ([12]; 23 DAA): 61% | TAROF Obs ([12]; 30 DAA): 33% | TAROF Obs ([12]; 57 DAA): 0% | LAMPU Obs ([13]; 7 DAA): 79% | LAMPU Obs ([13]; 14 DAA): 80% | LAMPU Obs ([13]; 23 DAA): 81% | LAMPU Obs ([13]; 30 DAA): 70% | AMBTR Obs ([14]; 7 DAA): 100% | AMBTR Obs ([14]; 14 DAA): 100% | AMBTR Obs ([14]; 57 DAA): 70% | RANAB Obs ([15]; 7 DAA): 98% | RANAB Obs ([15]; 14 DAA): 100% | RANAB Obs ([15]; 23 DAA): 100% | RANAB Obs ([15]; 30 DAA): 100% | ZEAMD Obs [16]: 0% | CHEAL Obs [17]: 0% | CHEAL Obs [18]: 0% | CAPBP Obs ([19]; 7 DAA): 89% | CAPBP Obs ([19]; 14 DAA): 85% | CAPBP Obs ([19]; 23 DAA): 77% | CAPBP Obs ([19]; 30 DAA): 72% | CAPBP Obs ([19]; 57 DAA): 93% | LEPVI Obs ([20]; 30 DAA): 100% | LEPVI Obs ([20]; 42 DAA): 96% | LEPVI Obs ([20]; 46 DAA): 100% | RUMCR Obs ([21]; 30 DAA): 58% | RUMCR Obs ([21]; 42 DAA): 58% | RUMCR Obs ([21]; 46 DAA): 13% | RUMCR Obs ([21]; 68 DAA): 15% | LAMPU Obs ([22]; 30 DAA): 100% | LAMPU Obs ([22]; 42 DAA): 98% | LAMPU Obs ([22]; 46 DAA): 100%
